Target: T1, myelin-associated glycoprotein (MAG) (Rattus norvegicus, UniProt P07722)
T1 sequence (P07722 20-626): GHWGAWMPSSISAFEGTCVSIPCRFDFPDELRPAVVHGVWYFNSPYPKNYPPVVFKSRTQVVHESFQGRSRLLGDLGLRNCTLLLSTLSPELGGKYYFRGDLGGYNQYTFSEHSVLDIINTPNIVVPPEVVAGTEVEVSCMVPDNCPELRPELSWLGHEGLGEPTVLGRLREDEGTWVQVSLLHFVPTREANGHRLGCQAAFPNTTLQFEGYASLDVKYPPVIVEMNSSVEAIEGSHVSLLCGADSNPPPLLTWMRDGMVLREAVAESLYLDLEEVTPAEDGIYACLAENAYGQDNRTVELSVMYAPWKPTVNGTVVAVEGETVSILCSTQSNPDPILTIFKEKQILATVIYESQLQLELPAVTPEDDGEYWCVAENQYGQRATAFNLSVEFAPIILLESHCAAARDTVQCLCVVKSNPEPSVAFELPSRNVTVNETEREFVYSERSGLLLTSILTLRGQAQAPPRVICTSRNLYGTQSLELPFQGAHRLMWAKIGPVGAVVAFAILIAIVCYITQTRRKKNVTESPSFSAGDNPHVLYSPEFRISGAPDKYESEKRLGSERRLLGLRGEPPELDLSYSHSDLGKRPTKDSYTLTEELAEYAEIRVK
Experiment: Adherence of MAG-transfected COS cells to microwell surfaces on which gangliosides/glycolipids were adsorbed (LDH activity)
Conditions: for support of MAG-mediated cell adhesion: structure-function comparison, FIGS. 1C and 2; for adhesion of MAG-transfected cells after neuraminidase treatment of the absorbed ganglioside: Vibrio cholerae neuraminidase-treated microwells; for MAG-transfected COS cells added that adhered: ganglioside-absorbed wells

Substance	binding compared to GM1b	support of MAG-mediated cell adhesion	adhesion of MAG-transfected cells after neuraminidase treatment of the absorbed ganglioside	MAG-transfected COS cells added that adhered	potency at supporting MAG-mediated cell adhesion relative to GT1b (more potent than GT1b, FIGS. 2 and 3)	adherence of MAG-transfected COS cells to ganglioside-absorbed surface (artificial membrane monolayer with phosphatidylcholine and cholesterol, FIG. 1B)	adherence of control-transfected COS cells (control-transfected COS cells, FIG. 1B)	adhesion of MAG-transfected cells to control-treated microwells (control-treated (no neuraminidase) microwells, FIG. 1D)
NeuAc α2,3 Gal β1,3 GalNAc β1,4(NeuAc α2,3)Gal β1, 4Glcβ1,1'Ceramide [GD1a]	enhanced binding	supported MAG-mediated cell adhesion						
NeuAc α2,3 Gal β1,3(NeuAc α2,6) GalNAc β1,4(NeuAc α2,8 NeuAc α2,3)Gal β1,4Glc β1,1'Ceramide [GQ1bα]			completely blocked	70-80%	8 fold			
NeuAc α2,3 Gal β1,3GalNAc β1,4(NeuAc α2,8 NeuAc α2,3) Gal β1, 4 Glc β1,1'Ceramide [GT1b]	enhanced binding	supported MAG-mediated cell adhesion	did not support adhesion	30-40%		adhered in a concentration-dependent manner	did not bind	supported adhesion

— patent publication US5962434A, “Compounds for stimulating nerve growth” (The Johns Hopkins University School of Medicine, priority 1996, dated 1999)
